US20210139453A1, “(HETERO)ARYL SULFONAMIDE COMPOUND AND FORMULATION FOR CONTROLLING HARMFUL ORGANISMS” (Nippon Soda Co., Ltd., priority 2018, published 2021)

Each compound was assayed on Mythimna separata (assay: Efficacy test against Mythimna separata (artificial feed mixed with emulsion)). Conditions: in vivo.
Excerpt: Five parts of the (hetero)aryl sulfonamide compound of the present invention, 93.6 parts of dimethylformamide and 1.4 parts of a polyoxyethylene alkyl aryl ether were mixed together and dissolved to obtain an emulsion (I) containing 5% of the active ingredient.
For the control, 93.6 parts of dimethylformamide and 1.4 parts of a polyoxyethylene alkyl aryl ether were mixed together and dissolved to obtain an emulsion (II).
Insect mortality rate(%)=(number of dead insects/number of test insects)×100 Nematode mortality rate(%)=(number of dead nematodes/number of test nematodes)×100
First, 0.8 g of a commercially-available artificial feed (Insecta LFS, manufactured by Nosan Corporation) and 1 μl of the emulsion (I) were mixed well, and thereby, a test feed was obtained. Subsequently, 0.2 g of the test feed was placed in each of the treatment areas of a plastic test container (volume: 1.4 ml). Subsequently, two second-instar larvae of Mythimna separata were inoculated into each treatment area, and a plastic lid was placed on the test container to prevent the larvae from escaping. The closed container was placed in a thermostatic chamber at 25° C. On the 5th day therefrom, the insect mortality rate and the amount of feed consumed were checked. The test was repeated.
In addition, for a control area, the insect mortality rate and the amount of feed consumed were checked in the same manner as that described in Test Example 1, with the exception of replacing the emulsion (I) with the emulsion (II).
For `O=S(=O)(Nc1cc(C(F)(F)F)ccc1-n1ccc(-c2ccc(C(F)(F)F)cc2)n1)C(F)(F)F` [Compound 2-22], the “insect mortality rate against Mythimna separata” value (“insect mortality rate” for short) was 100%.
`O=S(=O)(Nc1cc(C(F)(F)F)ccc1-n1ccc(-c2ccc(Cl)cc2)n1)C(F)(F)F` [Compound 2-18] was tested, and the “insect mortality rate” value was 100%.
For `O=S(=O)(Nc1cc(C(F)(F)F)ccc1-c1ccc(C(F)(F)F)cn1)C(F)(F)F` [Compound 2-36], the “insect mortality rate” value was 100%.
For `O=S(=O)(Nc1cc(C(F)(F)F)ccc1-c1nc(-c2ccc(Cl)cc2)no1)C(F)(F)F` [Compound 2-25], the “insect mortality rate” value was 100%.
In the case of `O=S(=O)(CC(F)(F)F)Nc1cc(C(F)(F)F)cnc1-n1ccc(C(F)(F)F)n1` [Compound 3-8], the “insect mortality rate” value is reported as 100%.
`O=S(=O)(Nc1cc(C(F)(F)F)ccc1-n1cc(-c2ccc(Cl)cc2)cn1)C(F)(F)F` [Compound 2-16] was tested, and the “insect mortality rate” value was 100%.
For `O=S(=O)(Nc1cc(F)c(F)cc1-c1nc2cc(F)c(F)cc2[nH]1)C(F)(F)F` [Compound 2-9], the “insect mortality rate” value was 100%.
In the case of `O=S(=O)(Nc1cc(C(F)(F)F)ccc1-c1nc2cc(F)c(F)cc2[nH]1)C(F)(F)F` [Compound 2-8], the “insect mortality rate” value is reported as 100%.
In the case of `O=S(=O)(N(c1cc(C(F)(F)F)ccc1-c1nc2cc(C(F)(F)F)ccc2[nH]1)S(=O)(=O)C(F)(F)F)C(F)(F)F` [Compound 2-5], the “insect mortality rate” value is reported as 100%.
In the case of `CCS(=O)(=O)Nc1cc(C(F)(F)F)ccc1-n1cnc(-c2ccc(Br)cc2)n1` [Compound 2-17], the “insect mortality rate” value is reported as 100%.
With `O=S(=O)(Nc1cc(C(F)(F)F)ccc1-c1nc2cc(C(F)(F)F)ccc2[nH]1)C(F)(F)F` [Compound 2-6] the “insect mortality rate” value was 100%.
With `O=S(=O)(Nc1cc(C(F)(F)F)ccc1-n1cnc(-c2ccc(Br)cc2)n1)C(F)(F)F` [Compound 2-15] the “insect mortality rate” value was 100%.
For `O=S(=O)(Nc1cc(C(F)(F)F)cnc1-c1cccc(C(F)(F)F)n1)C(F)(F)F` [Compound 3-47], the “insect mortality rate” value was 100%.
For `CCS(=O)(=O)Nc1cc(C(F)(F)F)ccc1-c1nc2cc(F)c(F)cc2[nH]1` [Compound 2-14], the “insect mortality rate” value was 100%.
With `O=S(=O)(Nc1cc(C(F)(F)F)ccc1-c1nc2cc(Cl)c(Cl)cc2[nH]1)C(F)(F)F` [Compound 2-3] the “insect mortality rate” value was 100%.
For `Cc1c(Br)c(C(F)(F)F)nn1-c1ncc(C(F)(F)F)cc1NS(=O)(=O)C(F)(F)F` [Compound 3-46], the “insect mortality rate” value was 100%.
